# According to ChEMBL document CHEMBL1201862, “PubChem BioAssay data set” (2004):
#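 Briefly, cells in 96-well plates were exposed to five compound concentrations for 48 h, and endpoints were estimated by linear interpolation. Here, GI50 denotes the concentration required for 50% inhibition of growth.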 Active and inactive are the calls of the source. No stated cut-off is given here; in the data, active = GI50 up to about 1.1 µM and inactive = higher. Where a SMILES comes first, the peptide text is derived from it. The star is where a group is joined. ONb = O=[N+]([O-])c1ccc(CO*)cc1; Boc = CC(C)(C)OC(=O)*
# Assays:
# Test in all cases: growth of human tumour cells (NCI), 48 h
# CCRF-CEM = test system: CCRF-CEM
# HOP-92 = test system: HOP-92
# NCI-H23 = test system: NCI-H23
# COLO 205 = test system: COLO 205
# HOP-62 = test system: HOP-62
# IGROV-1 = test system: IGROV-1
# ACHN = test system: ACHN
# OVCAR-4 = test system: OVCAR-4
# SK-MEL-28 = test system: SK-MEL-28
# MDA-MB-435 = test system: MDA-MB-435
# 786-0 = test system: 786-0
# KM12 = test system: KM12
# SW-620 = test system: SW-620
# LOX IMVI = test system: LOX IMVI
# SK-MEL-2 = test system: SK-MEL-2
# TK-10 = test system: TK-10
# HCC 2998 = test system: HCC 2998
# SK-OV-3 = test system: SK-OV-3
# SNB-19 = test system: SNB-19
# M14 = test system: M14
SMILES,GI50 (CCRF-CEM),GI50 (HOP-92),GI50 (NCI-H23),GI50 (COLO 205),GI50 (HOP-62),GI50 (IGROV-1),GI50 (ACHN),GI50 (OVCAR-4),GI50 (SK-MEL-28),GI50 (MDA-MB-435),GI50 (786-0),GI50 (KM12),GI50 (SW-620),GI50 (LOX IMVI),GI50 (SK-MEL-2),GI50 (TK-10),GI50 (HCC 2998),GI50 (SK-OV-3),GI50 (SNB-19),GI50 (M14)
Cc1c2ncccc2cc2oc3ccccc3c(=O)c12,16 µM (inactive),28.3 µM (inactive),47.9 µM (inactive),31.2 µM (inactive),30.9 µM (inactive),4.63 µM (inactive),21.9 µM (inactive),35.8 µM (inactive),> 100 µM (inactive),56.8 µM (inactive),> 100 µM (inactive),55.6 µM (inactive),33.5 µM (inactive),11.1 µM (inactive),> 100 µM (inactive),91.4 µM (inactive),60.7 µM (inactive),> 100 µM (inactive),–,–
CCOC(=O)CC1(O)CCCCC1(Sc1ccc(C)cc1)Sc1ccc(C)cc1 (stereo not drawn),4.76 µM (inactive),29.6 µM (inactive),49.4 µM (inactive),42.2 µM (inactive),54.2 µM (inactive),–,51.5 µM (inactive),47.8 µM (inactive),39.2 µM (inactive),33.9 µM (inactive),48.2 µM (inactive),44.2 µM (inactive),62.4 µM (inactive),36.8 µM (inactive),20.5 µM (inactive),> 100 µM (inactive),31.5 µM (inactive),> 100 µM (inactive),81.1 µM (inactive),41.4 µM (inactive)
CCOC(=O)/C(=C\c1ccc(C#N)cc1)C(C)=O,13.5 µM (inactive),17.4 µM (inactive),17.5 µM (inactive),31.3 µM (inactive),36.8 µM (inactive),16.8 µM (inactive),23.6 µM (inactive),23.3 µM (inactive),–,26.8 µM (inactive),18.4 µM (inactive),18.6 µM (inactive),21.2 µM (inactive),19.9 µM (inactive),15.2 µM (inactive),24 µM (inactive),5.92 µM (inactive),40.8 µM (inactive),45.1 µM (inactive),30 µM (inactive)
C=CCn1c(N)c(C#N)c(C#N)c1-c1ccccc1,> 100 µM (inactive),> 100 µM (inactive),> 100 µM (inactive),> 100 µM (inactive),> 100 µM (inactive),> 100 µM (inactive),> 100 µM (inactive),> 100 µM (inactive),–,> 100 µM (inactive),> 100 µM (inactive),> 100 µM (inactive),> 100 µM (inactive),> 100 µM (inactive),26.8 µM (inactive),> 100 µM (inactive),> 100 µM (inactive),> 100 µM (inactive),> 100 µM (inactive),> 100 µM (inactive)
CCC12CCCN3CCc4c(n(c5ccccc45)C(O)(C(=O)OC)C1)C32 (stereo not drawn),> 100 µM (inactive),> 100 µM (inactive),> 100 µM (inactive),> 100 µM (inactive),–,> 100 µM (inactive),> 100 µM (inactive),> 100 µM (inactive),> 100 µM (inactive),> 100 µM (inactive),> 100 µM (inactive),> 100 µM (inactive),> 100 µM (inactive),> 100 µM (inactive),> 100 µM (inactive),> 100 µM (inactive),> 100 µM (inactive),> 100 µM (inactive),> 100 µM (inactive),> 100 µM (inactive)
COc1cccc([C@@H]2CC(=O)c3cc4c(cc3N2)OCO4)c1,> 100 µM (inactive),> 100 µM (inactive),–,> 100 µM (inactive),> 100 µM (inactive),–,> 100 µM (inactive),> 100 µM (inactive),> 100 µM (inactive),71.6 µM (inactive),> 100 µM (inactive),> 100 µM (inactive),> 100 µM (inactive),> 100 µM (inactive),> 100 µM (inactive),> 100 µM (inactive),> 100 µM (inactive),> 100 µM (inactive),> 100 µM (inactive),> 100 µM (inactive)
O=[N+]([O-])c1ccc2nc(Nc3ccccc3)c(Nc3ccccc3)nc2c1,0.875 µM (active),1.63 µM (inactive),1.17 µM (inactive),1.62 µM (inactive),1.19 µM (inactive),1.58 µM (inactive),0.681 µM (active),2.87 µM (inactive),2.45 µM (inactive),1.66 µM (inactive),1.49 µM (inactive),1.3 µM (inactive),1.56 µM (inactive),1.58 µM (inactive),2.15 µM (inactive),2.83 µM (inactive),1.25 µM (inactive),0.787 µM (active),1.15 µM (inactive),–
O=[N+]([O-])c1ccc(S(=O)(=O)n2c3ccc(Br)cc3c3nc4ccccc4nc32)cc1,20.7 µM (inactive),> 100 µM (inactive),> 100 µM (inactive),> 100 µM (inactive),> 100 µM (inactive),> 100 µM (inactive),> 100 µM (inactive),> 100 µM (inactive),> 100 µM (inactive),> 100 µM (inactive),> 100 µM (inactive),> 100 µM (inactive),> 100 µM (inactive),> 100 µM (inactive),> 100 µM (inactive),> 100 µM (inactive),> 100 µM (inactive),–,> 100 µM (inactive),> 100 µM (inactive)
Cc1ccc(NC(=O)CC(=O)N2N=C(c3ccccc3)C(/N=N/c3ccc(S(=O)(=O)CCOS(=O)(=O)O)cc3)C2=O)cc1 (stereo not drawn),> 100 µM (inactive),> 100 µM (inactive),23.6 µM (inactive),> 100 µM (inactive),77.6 µM (inactive),41.6 µM (inactive),> 100 µM (inactive),–,> 100 µM (inactive),> 100 µM (inactive),60.5 µM (inactive),86.3 µM (inactive),> 100 µM (inactive),> 100 µM (inactive),57.1 µM (inactive),> 100 µM (inactive),> 100 µM (inactive),–,> 100 µM (inactive),> 100 µM (inactive)
Oc1ncc(Cl)c(O)n1,> 100 µM (inactive),> 100 µM (inactive),> 100 µM (inactive),> 100 µM (inactive),–,> 100 µM (inactive),> 100 µM (inactive),> 100 µM (inactive),> 100 µM (inactive),> 100 µM (inactive),> 100 µM (inactive),> 100 µM (inactive),> 100 µM (inactive),> 100 µM (inactive),> 100 µM (inactive),> 100 µM (inactive),> 100 µM (inactive),> 100 µM (inactive),> 100 µM (inactive),> 100 µM (inactive)
CCOC(=O)C1CCC(=O)N1C(=O)c1ccccc1Cl (stereo not drawn),> 100 µM (inactive),> 100 µM (inactive),> 100 µM (inactive),–,> 100 µM (inactive),> 100 µM (inactive),> 100 µM (inactive),–,> 100 µM (inactive),> 100 µM (inactive),> 100 µM (inactive),> 100 µM (inactive),> 100 µM (inactive),> 100 µM (inactive),–,> 100 µM (inactive),> 100 µM (inactive),–,> 100 µM (inactive),> 100 µM (inactive)
CC(C)CC(NC(=O)OC(C)(C)C)C(=O)NC(CCC(=O)OCc1ccc([N+](=O)[O-])cc1)C(=O)OCc1ccc([N+](=O)[O-])cc1 (stereo not drawn) (Boc-Leu-Glu(ONb)-ONb; configuration not given here),19.8 µM (inactive),56.4 µM (inactive),20 µM (inactive),17.4 µM (inactive),> 100 µM (inactive),24.4 µM (inactive),46.6 µM (inactive),> 100 µM (inactive),15.8 µM (inactive),> 10 µM (inactive),26.1 µM (inactive),–,50.9 µM (inactive),25.2 µM (inactive),22.1 µM (inactive),28.6 µM (inactive),23 µM (inactive),–,> 100 µM (inactive),26.2 µM (inactive)
CN(C)c1ccc(/C=C(/NC(=O)c2ccccc2)C(=O)Nc2ccccc2C(=O)O)cc1,> 100 µM (inactive),> 100 µM (inactive),> 100 µM (inactive),> 100 µM (inactive),> 100 µM (inactive),> 100 µM (inactive),> 100 µM (inactive),–,> 100 µM (inactive),> 100 µM (inactive),> 100 µM (inactive),> 100 µM (inactive),> 100 µM (inactive),> 100 µM (inactive),> 100 µM (inactive),–,> 100 µM (inactive),> 100 µM (inactive),> 100 µM (inactive),> 100 µM (inactive)
C/C=C(\C)c1cc(=O)c2c(C)cc3c(c2o1)C(OC)(OC(C)=O)c1c(O)c(C2CC(C)(N(C)C)C(OC(C)=O)C(C)O2)cc(C2CC(N(C)C)C(OC(C)=O)C(C)O2)c1C3=O (stereo not drawn),0.419 µM (active),1.28 µM (inactive),1.02 µM (active),1.24 µM (inactive),0.621 µM (active),1.61 µM (inactive),0.202 µM (active),–,3.77 µM (inactive),1.52 µM (inactive),0.288 µM (active),1.14 µM (inactive),0.237 µM (active),0.512 µM (active),2.18 µM (inactive),1.45 µM (inactive),0.0218 µM (active),2.75 µM (inactive),1.78 µM (inactive),1.24 µM (inactive)
